# Assay results from patent publication US20100260680A1, “NOVEL BONE MASS INCREASING AGENT” (ORIENTAL YEAST CO., LTD., priority 2007, published 2010).
# Bridges are numbered along the chain shown (N, C = ends). Where no end group is shown, it is not given here.
# Experiments:
# [1] = system: Human mesenchymal stem cells; assay: ALP activity determination in human mesenchymal stem cells; type: cell-based; conditions: Day 7, differentiation medium and maintenance medium
# Experimental: Human mesenchymal stem cells were seeded on a 96-well plate (1×10^3 cells/well) (Nunc) and a 48-well plate (2.4×10^3 cells/well) (IWAKI). After 24 hours, the culture supernatant was removed from each plate and an osteoblast differentiation induction medium (Lonza) was introduced thereonto. The medium was replaced with new medium every 3 or 4 days.
# At such time, peptide D was added at a concentration of 100 μM (group treated with peptide D). As a negative control, the control peptide was added at the same concentration.
# Seven days after differentiation, the culture supernatant was removed from each plate and the cells were fixed with an acetone/ethanol solution. The ALP activity was determined using p-nitrophenyl phosphate as a substrate. Specifically, a carbonate buffer (5 mM MgCl2, 50 mM NaHCO3) containing p-nitrophenyl phosphate (Nacalai) (1 mg/mL) was added to each well (100 μL/well), followed by incubation at 37° C. Then, the OD value at 405 nm was determined with the use of a microplate reader (BMG Labtech) for each well.
# Human mesenchymal stem cells (hMSC; Lonza) were seeded on a 96-well plate (Nunc) (2×10^3 cells/well). After cell adhesion had taken place, the medium was replaced with a differentiation medium prepared by adding 100 nM dexamethasone (SIGMA), 10 mM BGP(SIGMA), and 50 μg/mL ascorbic acid to a dedicated maintenance medium (Lonza). […]
# [2] = system: Human mesenchymal stem cells; assay: Alizarin red S staining (calcification) of human mesenchymal stem cells; type: cell-based; conditions: 300 μM; Day 21; regardless of induction of differentiation
# Experimental: On Day 21 after differentiation, the cells were washed with PBS, followed by fixation with a 10% neutral buffer formalin solution.
# The cells were washed with water after removal of the fixative solution. A 1% alizarin red S stain solution (Nacalai) (150 μL) was added thereto. The plate was left at room temperature for 3 minutes. Thereafter, the stain solution was discarded, followed by washing with water and drying. Then, microscopic observation was carried out.
# Human mesenchymal stem cells were cultured in the same manner as in Example 1. Peptide D (300 μM) was added to human mesenchymal stem cells.
# [3] = system: C2C12 cells; assay: ALP activity determination in C2C12 cells; type: cell-based, mouse; conditions: 6 days
# [4] = system: C57BL/6CrjCrlj mice; assay: Bone morphology measurement with calcein labeling after peptide D administration; type: in vivo, mouse; conditions: region 5 mm away from the distal end of the femur
# Experimental: In the experiment in Example 11 in which synthetic peptide D had been administered to mice, calcein (Nacalai) mixed with 2% hydrogen carbonate/ethanol aqueous solution was intraperitoneally administered in doses of 0.01 mL/g (weight) to individual mice of each group for calcein labeling on Days 1 and 4 after the initiation of administration of synthetic peptide D. A region located 5 mm away from the ethanol-fixed distal end of the femur collected from each mouse upon dissection was embedded in a methylmethacrylate (MMA) resin so that a non-decalcified specimen was prepared. […] As a result, in the group treated with peptide D, increases in calcification rate and osteogenesis rate were observed (FIGS. 25A and 25B).
# [5] = system: MC3T3-E1 cells; assay: DNA microarray analysis of MC3T3-E1 cells; type: cell-based, mouse; conditions: 200 μM peptide D (acetate)
# Experimental: MC3T3-E1 cells mixed with 10% FBS+αMEM (SIGMA) were seeded on a 10 cm dish (2×10^5 cells/well). After 12 hours, the medium was removed therefrom. […] The medium was partially removed at 12 and 96 hours, at which time TRIZOL solution (Invitrogen) (3 mL) was added to each well for cell lysis. Then, total RNA extraction was carried out by the method described in Example 15. Each extracted total RNA (2 μg) was subjected to DNA microarray analysis (Mouse Genome 430 2.0 Affymetrix). In addition, scanning was performed with a GeneChip Scanner 3000 (Affymetrix 690036) and digitalization was performed with the Gene Chip Operating Software ver. 1.4.
# [6] = system: MC3T3-E1 cells; assay: RT-PCR verification of gene expression in MC3T3-E1 cells; type: cell-based, mouse
# [7] = system: mouse tibia; assay: RT-PCR of osteogenesis markers in tibia of mice given peptide D; type: in vivo; conditions: peptide D acetate 10 mg/kg s.c. three times daily for 5 days
# Experimental: Synthetic peptide D subjected to substitution with an acetate was used in this experiment. The synthetic peptide D was dissolved in PBS at a concentration of 1 mg/mL. PBS was administered to a control group.
# Subcutaneous administration of synthetic peptide D in the form of acetate was carried out in a dose of 10 mg/kg at 8:00, 14:00, and 20:00 (three times daily) for 5 days. PBS was administered to the control group. Mice were dissected 12 hour after the completion of administration for 5 days and subjected to exsanguination. Thereafter, the femur and the tibia were collected from each mouse. The whole blood of each mouse was left at room temperature for 1 hour and then centrifuged under conditions of 5000 rpm and 4° C. for 5 min. The serum was collected in a new tube. The femur and the tibia of each mouse were fixed with cold 70% ethanol. Muscles and the like were carefully removed from each tibia. Then, each tibia was washed with PBS and cut into 1-mm fragments with scissors, followed by freezing with liquid nitrogen. […]
# After cDNA synthesis, as in the case of Example 23, PCR was performed using primers specific to mouse alkaline phosphatase (mALP), mouse type I collagen αI chain (mCollagen αI), and mouse osteocalcin (mOC). […] The obtained images were analyzed with a CSAnalyzer and standardized based on the GAPDH expression levels. […]
substance,measurement,setting,value
"peptide D: cyclic peptide of SEQ ID NO: 7, 9 amino acids, two cysteine residues bound via a disulfide bond; binds to RANKL (YCWSQYLCY; disulfide 2-8 (inferred))",ALP activity,[1]; 300 μM,significant increase in ALP activity
same,ALP activity,[1]; peptide D 100 μM,significantly increased
same,alizarin red staining (calcification),[2],strong degree of alizarin red staining
same,ALP activity,[3]; 50 μM peptide D alone,actions of ALP activity enhancement were not observed
same,increase in the ALP activity relative to BMP-2 alone,[3]; 50 μM peptide D combined with 100 ng/mL BMP-2,at least 5 times
same,calcification rate,[4],increases
same,osteogenesis rate (bone formation rate),[4],increases
same,expression level of the osteocalcin (OC) gene,[5],increased sharply
same,"gene expression levels of IRS-1, IGF-1, FGF receptor 2, PDGF receptor β, PDGF receptor α, CTGF, type I collagen α1 and α2 chains",[5]; 12 hours,increased significantly
same,"gene expression levels of IGF-2, ALP, BMP-4, OC (osteocalcin), FGF2, PDGFc, PDGFα, PDGFβ",[5]; 96 hours,increased significantly
same,"gene expression levels of IRS1, PDGFRβ, PDGFc, FGFR2, FGF2, CTGF, BMP-4 and IGF-2 (RT-PCR)",[6]; 200 μM peptide D (acetate),significant increases in the gene expression levels
same,"gene expression levels of ALP, Col1 and OC (RT-PCR)",[6]; 200 μM peptide D (acetate) or 150 ng/ml BMP-2,significant increases in the gene expression levels
same,"expression levels of mALP, mCollagen αI and mOC in tibia",[7],increase in the expression level of each factor
